# From patent publication US12570661B2, “Isoform-specific aldehyde dehydrogenase inhibitors” (The Board of Trustees of the Leland Stanford Junior …, priority 2020, dated 2026)
# “Also recorded” adds a separate entry of the source. Read-outs that look alike come from different tables or passages of the source.
# Key:
# ALDH1B1 [1] = target: T1, ALDH1B1 (Homo sapiens, UniProt P30837); assay: ALDEFLUOR assay of cellular ALDH1B1 activity in ALDH1B1-transfected ALDH1A3−/− A375 cells; format: cell-based; conditions: for effect on ALDH1B1-dependent ALDEFLUOR signal (cellular ALDH1B1 activity): flow cytometry; for IC50: ALDEFLUOR, ALDH1B1-overexpressing ALDH1A3−/− A375 cells, read-out: ALDH1B1(in cellulo) IC50
# T1 sequence (P30837 18-517): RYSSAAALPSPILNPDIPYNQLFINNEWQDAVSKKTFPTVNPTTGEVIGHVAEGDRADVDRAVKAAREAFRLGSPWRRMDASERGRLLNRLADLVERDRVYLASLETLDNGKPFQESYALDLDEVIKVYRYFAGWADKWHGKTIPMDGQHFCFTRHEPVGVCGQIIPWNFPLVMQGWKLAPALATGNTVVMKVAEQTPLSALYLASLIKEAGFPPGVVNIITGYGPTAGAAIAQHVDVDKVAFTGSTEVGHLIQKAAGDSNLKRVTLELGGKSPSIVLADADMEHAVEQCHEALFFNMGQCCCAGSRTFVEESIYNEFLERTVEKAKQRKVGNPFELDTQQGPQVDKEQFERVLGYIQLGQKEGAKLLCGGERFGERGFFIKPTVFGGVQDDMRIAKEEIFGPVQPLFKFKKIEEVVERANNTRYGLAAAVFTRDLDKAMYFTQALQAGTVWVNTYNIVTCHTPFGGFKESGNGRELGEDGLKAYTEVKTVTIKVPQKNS
# Experimental: ALDH1A3^−/− A375 cells were seeded into a 6-well plate at a density of 5×10^5 cells/well and cultured for 24 h. The cells were then transfected with either pCMV6-entry, pCMV6-GFP (Addgene, plasmid 11153), or pCMV-ALDH1B1. After 24 h, the media was replaced and transfection efficiencies were estimated by the EGFP-positive cells in the pCMV-GFP-transfected well. The cells were cultured for another 24 h and their ALDH activities were quantified using the ALDEFLUOR assay. Briefly, the cells were isolated from the plate with trypsin and resuspended in ALDEFLUOR assay buffer (STEMCELL Technologies) at a concentration of 4×10^5 cells/mL. Each ALDEFLUOR assay used 0.5 mL of this cell suspension, and the cells were treated with individual compounds for 15 min at 37° C. and 5% CO2. The cell suspensions were then treated with 2.5 μL ALDEFLUOR reagent and incubated for an additional 30 min at 37° C. and 5% CO2. The cells were then collected by centrifugation (450×g) for 5 min at room temperature, resuspended in 200 μL assay buffer, and analyzed with an LSR II flow cytometer (BD Biosciences) at the Stanford FACS facility.
# ALDH1B1 [2] = target: T1, ALDH1B1; assay: ALDH1B1 enzyme kinetics assay (NADH fluorescence, acetaldehyde substrate); format: biochemical; design: made in house; host or cells: E. coli BL21 (optionally co-expressed with GroEL/GroES); conditions: for ALDH1B1 inhibition / isoform selectivity (in words): enzyme kinetics assays against ALDH isoforms; for IC50: 1 μg/mL enzyme, 1 mM acetaldehyde, 1 mM NAD+, read-out: ALDH1B1(in vitro) IC50
# Experimental: Cloning, expression, and purification of human recombinant ALDH1A1, ALDH1A3, ALDH2, ALDH3A1, ALDH3A2, ALDH4A1, ALDH5A1 and ALDH7A1 isozymes were conducted as described previously (Chen, C. H. et al. (2015) Proc. Natl. Acad. Sci. U.S.A. 112, 3074-3079). Human ALDH1A2 (Origene, SC109995) and ALDH1B1 (T. Hurley, Indiana University) plasmids were cloned into the pET-15b expression vector (Novagen, 69661-3) containing an N-terminal hexahistidine tag. The mitochondria-targeting sequence of ALDH1B1 was also removed. For protein expression without chaperones, the pET-15b based plasmids were transformed into competent BL21 E. coli cells, which were subsequently grown in 1 L of Luria-Bertani medium containing 100 μg/mL ampicillin at 37° C. Once the OD600 value reached 0.6, the culture was transferred to 16° C. and 0.5 mM isopropyl β-d-1-thiogalactopyranoside was introduced to induce protein expression overnight. The bacteria were then pelleted by centrifugation (3000×g, 4° C. for 30 rain) and harvested. 40 mL BugBuster Master Mix buffer (MilliporeSigrna) containing a protease inhibitor cocktail (cOmplete; Roche) was added, and the cells were lysed by mechanically rolling the suspension at room temperature for 25 min. The lysate was centrifuged (16000×g, 4° C. for 30 min), and the soluble fraction was collected and mixed with 2 mL of Ni-NTA Superflow resin (Qiagen). After the mixture was avowed to rock at 4° C. for 1 h, it was used to create a 10-mL gravity column, which was sequentially treated with 40 mL of wash buffer 1 (20 mM sodium phosphate, 500 mM NaCl, 1 mM DTT, 20 mM imidazole, 5% glycerol, pH 7.4) and 25 mL of wash buffer 2 (20 mM sodium phosphate, 500 mM NaCl, 1 mM DTT, 40 mM imidazole, 5% glycerol, pH 7.4). The hexahistidine-tagged protein was then recovered by treated the column with 5 mL elution buffer (20 mM sodium phosphate, 500 mM NaCl, 1 mM DTT, 400 mM imidazole, 5% glycerol, pH 7.4) and collecting 500-μL fractions. The protein concentration for each fraction was measured (500 μL elution volume was collected as one fraction and was immediately mixed with 500 μL glycerol. The protein concentration for each fraction was measured (600 nm Protein Assay Reagent; Thermo Fisher Scientific), and protein-containing fractions were diluted with an equal volume of glycerol and stored at −80° C. Samples from each step were also collected for SDS-PAGE gel analysis. For ALDH1B1 protein co-expression with chaperones, pET-15b-ALDH1B1 and GroEL/GroES (Addgene, plasmid pBB541) plasmids were co-transformed into competent BL21 E. coli cells, which were subsequently grown in 1 L of Luria-Bertani medium containing 100 μg/mL ampicillin and 50 μg/mL spectinomycin at 37° C. The hexahistidine-tagged ALDH1B1 protein was then expressed and purified as described above.
# To evaluate compound activities against ALDH isoforms, reaction mixtures consisting of enzyme assay buffer (100 mM sodium phosphate, 1 mM MgCl2, pH 8.0) and 0.1% DMSO, 1 mM β-mercaptoethanol, 1 mM NAD^+, and the bacterially expressed protein were prepared in white opaque 96-well assay plates (100 μL/well, flat-bottom and non-treated; Corning Costar). 5 μg/mL ALDH enzyme was used for single-dose (1, 10, 50 μM) compound test, and 1 μg/mL ALDH enzyme was used for IC50s determination. Acetaldehyde was then added to each well to achieve an initial substrate concentration of 1 mM, and the resulting enzymatic activity was measured based on NADH fluorescence. The fluorescence signal was read over the course of 10 min on a SpectraMax M2e microplate reader (340-nm excitation and 460-nm emission; Molecular Devices) operated by SoftMax Pro software. Compound activities were normalized to a DMSO control, and dose-response inhibition curves were fitted with four-parameter non-linear regression using Prism software. […]
# [3] = HEK-293T cytotoxicity (cell viability) assay; format: cell-based; conditions: human, HEK-293T cells; adherent HEK-293T, 4-5 days, CellTiter-Glo; read-out: HEK293T GI50
# Experimental: HEK-293T cells were seeded into a 96-well plate at a density of 5×10^3 cells/well and treated with varying concentrations of selected compounds or an equivalent amount of DMSO vehicle. The cells were cultured for 4-5 days without a media change, and after the DMSO-treated cells approached 100% confluence, the cell viabilities were measured using a CellTiter-Glo 3D Cell Viability Assay kit (Promega) and a Veritas microplate luminometer (Turner BioSystems) as described above.
# SW480 cells (spheroid) = assay: Matrigel spheroid growth / viability assay, SW480; format: cell-based; conditions: for GI50: read-out: Spheroid SW480 GI50, Matrigel spheroid culture, 7 days
# Experimental: To prepare Matrigel-coated culture plates, 96-well and 24-well plates were placed on ice and coated with 25 μL or 300 μL, respectively, of Matrigel matrix (Corning, LDEV-free) that had been thawed overnight at 4° C. The plates were then placed in a 37° C. incubator for 30 min to allow the Matrigel to solidify. SW480 or HCT116 cells were suspended in spheroid culture medium (RPMI-1640 containing 20 ng/mL recombinant human epidermal growth factor (Abcam, ab9697), 20 ng/mL recombinant human fibroblast growth factor (BioVision, 4037), 5 μg/mL heparin (Sigma), 1× N-2 supplement (Thermo Fisher Scientific), 100 U/mL penicillin, and 100 μg/mL streptomycin) and then seeded into the 96-well and 24-well Matrigel-coated plates at densities of 1,000 or 5,000 cells/well and total well volumes of […] or 1 mL, respectively. Compounds were diluted in spheroid culture medium and added to the wells, and the spheroid were grown at 37° C. with 5% CO2 for 7 days.
# To quantify spheroid growth at the 7-day endpoint, unstained spheroids were imaged with phase-contrast illumination using a Keyence BZ-X710 microscope. Some cultures were also stained with crystal violet to enable brightfield imaging. Briefly, the Matrigel spheroids cultures were treated with PBS containing 0.5% crystal violet and 5% methanol for 15 min at 37° C. and then gently washed 4×5 min with PBS. Spheroid sizes were quantified with ImageJ (Fiji) software using masks created with the default “Threshold” function and foreground/background adjustments to optimize masking fidelity. The full field of view was then selected for “Analyze Particles” analysis, providing numbered list of each spheroid and its area in the micrograph. In the few cases that two adjacent spheroids were treated as one object by the image processing software, their measurements were manually corrected using the “Freehand Selections” tool. To exclude background and debris from dead cells, spheroids with areas less than 500 μm^2 were excluded from the image analyses.
# (§1) SW480 or HCT116 cells were seeded into regular or Matrigel-coated 96-well plates at a density of 1000 cells/well. The cells were cultured in the corresponding adherent or spheroid culture medium (200 μL/well) containing the designated compounds or an equivalent amount of DMSO vehicle. Each culture was maintained for 7 days, and then cell viabilities were measured using a CellTiter-Glo 3D Cell Viability Assay kit (Promega). Briefly, 100 μL of the culture medium was removed from each well and replaced with 100 μL 3D Cell Assay reagent. The cells in each well were next homogenized by vigorous pipetting, and the plate was incubated for 10 min at room temperature to stabilize the chemiluminescent signal. A 150-μL aliquot from each well was then transferred into a white opaque 96-well assay plate (flat-bottom and non-treated; Corning Costar) and luminescence intensities were measured with a Veritas microplate luminometer (Turner BioSystems).
# SW480 cells (adherent) = assay: Cell viability assay, adherent SW480 cultures; format: cell-based, human; conditions: adherent culture, 7 days
# Experimental: as §1
# NIH-3T3 cells = assay: Seahorse oxygen-consumption-rate assay (NIH3T3); format: cell-based, murine; conditions: Mus musculus
smiles,measurement,setting,value
COc1ccccc1C1=CN(c2ccc(-c3ccccc3)cc2)C2=NCCCN12 [Guanidine 66],effect on ALDH1B1-dependent ALDEFLUOR signal (cellular ALDH1B1 activity),ALDH1B1 [1],inhibits cellular ALDH1B1 activity
same,ALDH1B1 inhibition / isoform selectivity (in words),ALDH1B1 [2],ALDH1B1-selective inhibitors
CCc1cc(Cl)ccc1C1=CN(c2ccc(-c3ccccc3CC)cc2)C2=NCCCN12 [STL8-T-0003],IC50,ALDH1B1 [2],74 nM
same,GI50,[3],1300 nM
COc1ccccc1-n1cc(-c2ccc(-c3ccncc3)cc2)[n+]2c1CCCCC2.[Br-] [Imidazolium 13],potency against ALDH1B1 relative to imidazolium 2 (and 8),"ALDH1B1 [2]; dose-response, FIG. 15 panel d",approximately 2 fold
same,ALDH1B1 inhibition / isoform selectivity (in words),ALDH1B1 [2],ALDH1B1-specific inhibitors; also recorded: enhanced specificity for ALDH1B1 in comparison to imidazolium 2
Br.COc1ccccc1C1=CN(c2ccc(-c3ccccc3)cc2)C2=NCCCCN12 [Guanidine 68],ALDH1B1 inhibition / isoform selectivity (in words),ALDH1B1 [2],ALDH1B1-selective inhibitors
COc1ccccc1C1=CN(c2ccc(-c3ccccc3)cc2)C2=NCCCN12 [STL5-T-0001],GI50,SW480 cells (spheroid),1500 nM
same,IC50,ALDH1B1 [2],98 nM
same,GI50,SW480 cells (adherent),1900 nM
COc1cc(Cl)ccc1C1=CN(c2ccc(-c3ccccc3OC)cc2)C2=NCCCN12 [STL5-T-0057],GI50,"SW480 cells (spheroid); Homo sapiens, SW480, 168 h",440 nM
same,IC50,ALDH1B1 [2],30 nM
same,GI50,[3],1700 nM
same,GI50,"SW480 cells (adherent); Homo sapiens, SW480, 168 h",2700 nM
COc1ccccc1-c1ccc(C2=CN(c3ccccc3OC)C3=NCCCCN23)cc1 [Compound 72],effect on ALDH1B1-dependent ALDEFLUOR signal (cellular ALDH1B1 activity),ALDH1B1 [1],inhibit cellular ALDH1B1 activity
same,efficacy on SW480 spheroid growth in combination with 5-FU,SW480 cells (spheroid); combination with 5-FU,closely matched the product of their individual activities
COc1cc(Cl)ccc1C1=CN(c2ccc(-c3ccccc3)cc2)C2=NCCCCN12 [STL5-T-0025],IC50,ALDH1B1 [2],42 nM
same,GI50,[3],5200 nM
"CCN(CC)c1ccc(C=O)cc1 [DEAB, N-diethylaminobenzaldehyde, reference compound]",effect on ALDH1B1-dependent ALDEFLUOR signal (cellular ALDH1B1 activity),ALDH1B1 [1],inhibited; also recorded: abrogated
COc1ccccc1N1C=C(c2ccc(-c3ccccc3)cc2)N2CCCCN=C21 [HPI-269],IC50,ALDH1B1 [1],110 nM
same,IC50,ALDH1B1 [2],81 nM
same,GI50,[3],3400 nM
same,IC50,NIH-3T3 cells,580 nM
CCc1ccccc1C1=CN(c2ccc(-c3ccccc3)cc2)C2=NCCCCN12 [STL5-T-0027],IC50,ALDH1B1 [2],44 nM
same,GI50,[3],4300 nM
CCOc1ccc(C2=CN(c3ccc(-c4ccccc4OC)cc3)C3=NCCCCN23)c(OC)c1 [Guanidine 64],GI50,"SW480 cells (spheroid); Homo sapiens, SW480, 168 h",1100 nM
same,IC50,ALDH1B1 [2],100 nM
same,GI50,"SW480 cells (adherent); Homo sapiens, SW480, 168 h",1300 nM
COc1ccccc1N1C=C(c2ccc(-c3ccccc3)cc2)N2CC(C)(C)CN=C21 [HPI-279],IC50,ALDH1B1 [1],110 nM
same,IC50,ALDH1B1 [2],82 nM
CCOc1ccc(C2=CN(c3ccc(-c4ccccc4OC)cc3)C3=NCCCN23)c(OC)c1 [Guanidine 65],GI50,"SW480 cells (spheroid); Homo sapiens, SW480, 168 h",1600 nM
same,IC50,ALDH1B1 [2],130 nM
same,GI50,"SW480 cells (adherent); Homo sapiens, SW480, 168 h",2900 nM
CCOc1ccc(N2C=C(c3ccc(-c4ccccc4)cc3)N3CCCCN=C32)cc1 [Guanidine 73],IC50,ALDH1B1 [1],6700 nM
same,IC50,ALDH1B1 [2],1900 nM
same,IC50,NIH-3T3 cells,2400 nM
CCc1cc(Cl)ccc1C1=CN(c2ccc(-c3ccccc3)cc2)C2=NCCCN12 [STL8-T-0002],IC50,ALDH1B1 [2],52 nM
same,GI50,[3],1500 nM
